{
  "source": "PubChem BioAssay AID2060490",
  "about": "(Molecular Pharmacology Branch, DTP, NCI, 2025)",
  "test_system": "885512-296-R-J2-PDC complex spheroid viability",
  "assay": "Anticancer human tumor 885512-296-R-J2-PDC patient-derived breast carcinoma cell line growth inhibition [GQUAD]",
  "details": "for viability, T/C: stronger effect = lower value",
  "excerpt": "DNA G-quadruplex Stabilizer Agents in Combinations in Complex Spheroids\nA high-throughput screen of multi-cell type tumor spheroids was designed to identify active combinations of DNA G-quadruplex stabilizer agents and targeted small molecules. Complex spheroids include a stromal component modeled by human endothelial cells (HUVEC) and fibroblasts modeled by human mesenchymal stem cells (MSCs). The concentration ranges selected for each drug and investigational agent were based upon clinically achievable concentrations if the clinical Cmax of the agent was known.\nCompounds. The drugs and investigational agents: pidnarulex (CX-5461; NSC782164), APTO-253 (NSC789042), BRACO-19 (NSC847499), peposertib (NSC802822), ceralasertib (NSC780249), elimusertib (NSC800525), camonsertib (NSC841442), AZD-1390 (NSC803789), olaparib (NSC753686), talazoparib (NSC767125), ART-558 (NSC835418), sotorasib (NSC818433), MRTX-1133 (NSC836407), SN-38 (NSC673596), topotecan (NSC609699), etoposide (NSC141540), doxorubicin (NSC123127), gemcitabine (NSC613327), 5-fluorouracil (NSC19893), paclitaxel (NSC125973), vemurafenib (NSC761431), panobinostat (NSC761190), R-306465 (JNJ-16241199; NSC773264), adavosertib (NSC754352), TP-3654 (NSC805149), carboplatin (NSC241240), KSQ-4279 (NSC840948), and staurosporine (NSC755774) were obtained from the National Cancer Institute (NCI) Developmental Therapeutics Program Chemical Repository (34). The FDA-approved anticancer drug set is available from the NCI Developmental Therapeutics Program. […] The stock solutions were prepared in dimethyl sulfoxide (DMSO, Sigma-Aldrich, St. Louis, MO, cat. D2650) at 800-fold the tested concentration and stored at -70 degrees C prior to their use. All drugs and investigational agents were tested over a range starting from a high concentration at or near the clinical Cmax and decreasing in half-log increments. If the clinical Cmax for an agent had not been determined, the highest concentration tested was 10 microM.\n2.3 Cell Culture. All cells were maintained in an incubator at 37 degrees C and 5% CO2 with 95% humidity. The PDC lines were cultured according to standard operating procedures established by the NCI PDMR. All PDCs were thawed and cultured in Matrigel-coated flasks prepared with a working solution of 1X Ham's F-12 nutrient mix, without supplementation (Invitrogen, cat. 11765054), 100 U/mL penicillin-streptomycin (Invitrogen, cat. 15140122), and 2.5% Matrigel (Corning Inc., cat. 354248) for the first three passages. The 857933-349-R-J2-PDC line was cultured in 6C/Colon 1B media, which includes advanced DMEM/F-12 (Thermo Fisher Scientific, cat. 12634028), 10 mM HEPES (Thermo Fisher Scientific, cat. 15630080), 1X GlutaMAX supplement (Thermo Fisher Scientific, cat. 35050061), 0.1 mg/mL primocin (InvivoGen, cat. ant-pm-2), 10% defined fetal bovine serum, heat inactivated (HyClone Laboratories Inc., cat. SH30070.03HI), 50% L-WRN conditioned media (ATCC, cat. CRL-3276), 1.25 mM N-Acetyl-L-cysteine (Sigma-Aldrich, cat. A9165), 10 mM nicotinamide (Sigma-Aldrich, cat. N0636), 1X B-27 supplement (Thermo Fisher Scientific, cat. 17504044), 1X N-2 supplement (Thermo Fisher Scientific, cat. 17502048), 10 microM Y-27632 dihydrochloride (Tocris Bioscience, cat. 1254), and 50 ng/mL human EGF recombinant protein (Thermo Fisher Scientific, cat. PHG0311). The 485176-168-R4-J1-PDC line was cultured in Panc media, which includes all 6C/Colon 1B media components plus 100 ng/mL human FGF-10 (Thermo Fisher Scientific, cat. 100-26), 500 nM SB-431542 (Selleckchem, cat. S1067), and gastrin (Tocris, cat. 3006).\n[…]",
  "note": "Several values for one entry are separate records, joined by “and”; a condition that tells them apart may be missing. Equal entries are not always repeated.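 Further: spheroids exposed to the compounds for one week.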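 Wherever viability, T/C is given: percent of tumor spheroid viability relative to DMSO vehicle control wells.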",
  "data": [
    {"smiles": "C#Cc1c(F)ccc2cc(O)cc(-c3ncc4c(N5CC6CCC(C5)N6)nc(OCC56CCCN5CC(F)C6)nc4c3F)c12", "note": "(centres undefined)", "values": [
      {"measurement": "viability, T/C", "setting": "compound 0.0316 µM", "value": "107% and 90.4% and 97.3%"},
      {"measurement": "viability, T/C", "setting": "compound 0.1 µM", "value": "97.7% and 92% and 97.9%"},
      {"measurement": "viability, T/C", "setting": "compound 0.316 µM", "value": "109% and 86.7% and 97.7%"},
      {"measurement": "viability, T/C", "setting": "compound 1 µM", "value": "90.1% and 70.5% and 98.3%"},
      {"measurement": "viability, T/C", "setting": "compound 3.16 µM", "value": "106% and 14% and 100%"},
      {"measurement": "viability, T/C", "setting": "compound 10 µM", "value": "83.4% and 22.4% and 90.7%"},
      {"measurement": "IC50", "setting": "curve of compound", "value": "> 10 µM and 1.57 µM"}
    ]},
    {"smiles": "CC(C)(O)C1CCC(Nc2ccc3ncc(-c4cccc(C(F)(F)F)c4)n3n2)CC1", "note": "(centres undefined) + CN(C)c1ccc(Nc2c3ccc(NC(=O)CCN4CCCC4)cc3nc3cc(NC(=O)CCN4CCCC4)ccc23)cc1", "values": [
      {"measurement": "IC50", "setting": "curve of first compound, second compound 0.0316 µM", "value": 1.72, "unit": "µM"},
      {"measurement": "IC50", "setting": "curve of first compound, second compound 0.1 µM", "value": 1.51, "unit": "µM"},
      {"measurement": "IC50", "setting": "curve of first compound, second compound 0.316 µM", "value": 1.56, "unit": "µM"},
      {"measurement": "IC50", "setting": "curve of first compound, second compound 1 µM", "value": 1.55, "unit": "µM"},
      {"measurement": "IC50", "setting": "curve of first compound, second compound 3.16 µM", "value": 1.03, "unit": "µM"},
      {"measurement": "IC50", "setting": "curve of first compound, second compound 10 µM", "value": "< 0.0316", "unit": "µM"},
      {"measurement": "viability, T/C", "setting": "second compound 0.0316 µM, first compound 0.0316 µM", "value": 111, "unit": "%"},
      {"measurement": "viability, T/C", "setting": "second compound 0.0316 µM, first compound 0.1 µM", "value": 99.6, "unit": "%"},
      {"measurement": "viability, T/C", "setting": "second compound 0.0316 µM, first compound 0.316 µM", "value": 105, "unit": "%"},
      {"measurement": "viability, T/C", "setting": "second compound 0.0316 µM, first compound 1 µM", "value": 78.7, "unit": "%"},
      {"measurement": "viability, T/C", "setting": "second compound 0.0316 µM, first compound 3.16 µM", "value": 11.9, "unit": "%"},
      {"measurement": "viability, T/C", "setting": "second compound 0.0316 µM, first compound 10 µM", "value": 23.8, "unit": "%"},
      {"measurement": "viability, T/C", "setting": "second compound 0.1 µM, first compound 0.0316 µM", "value": 99.6, "unit": "%"},
      {"measurement": "viability, T/C", "setting": "second compound 0.1 µM, first compound 0.1 µM", "value": 95, "unit": "%"},
      {"measurement": "viability, T/C", "setting": "second compound 0.1 µM, first compound 0.316 µM", "value": 97.9, "unit": "%"},
      {"measurement": "viability, T/C", "setting": "second compound 0.1 µM, first compound 1 µM", "value": 68.4, "unit": "%"},
      {"measurement": "viability, T/C", "setting": "second compound 0.1 µM, first compound 3.16 µM", "value": 15.2, "unit": "%"},
      {"measurement": "viability, T/C", "setting": "second compound 0.1 µM, first compound 10 µM", "value": 18.6, "unit": "%"},
      {"measurement": "viability, T/C", "setting": "second compound 0.316 µM, first compound 0.0316 µM", "value": 106, "unit": "%"},
      {"measurement": "viability, T/C", "setting": "second compound 0.316 µM, first compound 0.1 µM", "value": 98.6, "unit": "%"},
      {"measurement": "viability, T/C", "setting": "second compound 0.316 µM, first compound 0.316 µM", "value": 86.3, "unit": "%"},
      {"measurement": "viability, T/C", "setting": "second compound 0.316 µM, first compound 1 µM", "value": 72.2, "unit": "%"},
      {"measurement": "viability, T/C", "setting": "second compound 0.316 µM, first compound 3.16 µM", "value": 9.35, "unit": "%"},
      {"measurement": "viability, T/C", "setting": "second compound 0.316 µM, first compound 10 µM", "value": 19.9, "unit": "%"},
      {"measurement": "viability, T/C", "setting": "second compound 1 µM, first compound 0.0316 µM", "value": 92.7, "unit": "%"},
      {"measurement": "viability, T/C", "setting": "second compound 1 µM, first compound 0.1 µM", "value": 92.4, "unit": "%"},
      {"measurement": "viability, T/C", "setting": "second compound 1 µM, first compound 0.316 µM", "value": 86.3, "unit": "%"},
      {"measurement": "viability, T/C", "setting": "second compound 1 µM, first compound 1 µM", "value": 72.5, "unit": "%"},
      {"measurement": "viability, T/C", "setting": "second compound 1 µM, first compound 3.16 µM", "value": 9.81, "unit": "%"},
      {"measurement": "viability, T/C", "setting": "second compound 1 µM, first compound 10 µM", "value": 16.3, "unit": "%"},
      {"measurement": "viability, T/C", "setting": "second compound 3.16 µM, first compound 0.0316 µM", "value": 102, "unit": "%"},
      {"measurement": "viability, T/C", "setting": "second compound 3.16 µM, first compound 0.1 µM", "value": 87.9, "unit": "%"},
      {"measurement": "viability, T/C", "setting": "second compound 3.16 µM, first compound 0.316 µM", "value": 80.5, "unit": "%"},
      {"measurement": "viability, T/C", "setting": "second compound 3.16 µM, first compound 1 µM", "value": 54.9, "unit": "%"},
      {"measurement": "viability, T/C", "setting": "second compound 3.16 µM, first compound 3.16 µM", "value": 4.35, "unit": "%"},
      {"measurement": "viability, T/C", "setting": "second compound 3.16 µM, first compound 10 µM", "value": 4.39, "unit": "%"},
      {"measurement": "viability, T/C", "setting": "second compound 10 µM, first compound 0.0316 µM", "value": 16.9, "unit": "%"},
      {"measurement": "viability, T/C", "setting": "second compound 10 µM, first compound 0.1 µM", "value": 12.6, "unit": "%"},
      {"measurement": "viability, T/C", "setting": "second compound 10 µM, first compound 0.316 µM", "value": 16, "unit": "%"},
      {"measurement": "viability, T/C", "setting": "second compound 10 µM, first compound 1 µM", "value": 8.44, "unit": "%"},
      {"measurement": "viability, T/C", "setting": "second compound 10 µM, first compound 3.16 µM", "value": 0.72, "unit": "%"},
      {"measurement": "viability, T/C", "setting": "second compound 10 µM, first compound 10 µM", "value": 0.22, "unit": "%"}
    ]}
  ]
}
